From article PMC5109658, “Antibacterial and cytotoxic cytochalasins from the endophytic fungus Phomopsis sp. harbored in Garcinia kola (Heckel) nut” (BMC Complementary and Alternative Medicine, 2016)
≈ marks a conversion by molar mass, not a printed value. Where two headings read alike, the source gives them in different places.

Tests used:
MTT cytotoxicity assay [1] = assay type: cell-based, Human; conditions: human, HeLa cells; MTT, 24 h, mean ± SD; read-out: Cytotoxicty (LC50) HeLa cells
Description: (§1) HeLa (Human cervical cancer cell line, ATCC No. CCL-2) and Vero cells (African green monkey kidney cells, normal non-cancer cells, ATCC No. CCL-81), obtained from the American Type Culture Collection (ATCC) were used in this study. Cytotoxic activity was determined using the 3-(4,5-dimethylthiazol-2-yl)-2,5-diphenyltetrazolium bromide (MTT, Sigma, USA) assay reported by Mosmann for the HeLa and Vero cells. This cell viability assay is based on living cell‘s property to transform the MTT dye tetrazolium ring into a purple-colored formazan structure due to the action of mitochondrial and other dehydrogenases inside the cell. The color intensity yielded by the cell population is directly proportional to the number of viable cells, and one can quantify the absorbance measurements using mathematical parameters. Each test sample was dissolved in dimethylsulfoxide (DMSO) to give a stock solution. Compounds 1–3 were prepared from the stock solutions by serial dilution in RPMI 1640 to give a volume of 100 μL in each well of a microtiter plate (96-well). Each well was filled with 100 μL of cells at 2 × 10^5 cells/mL. The assay for each concentration of compound was performed in triplicates and the culture plates were kept at 37 °C with 5% (v/v) CO2 for 24 h. After removing the supernatant of each well and washing twice by PBS, 20 μL of MTT solution (5 mg/mL in PBS) and 100 μL of medium were then introduced. After 4 h of incubation, 100 μL of DMSO were added to each well to dissolve the formazan crystals and the absorbance values at 490 nm were measured with a microplate reader (Bio-RAD 680, USA). The relative cell viability (%) was expressed as a relative percentage of treated cells to the untreated control cells (TC/UC × 100). The rate of cell inhibition was calculated using the following formula: inhibition rate = [1- (ODtest/ODnegative control)] × 100%. The LC50 values were calculated as the concentration of test sample resulting in a 50% reduction of absorbance compared to untreated cells. Cells treated with 5-fluorouridine + RPMI 1640 served as positive control while cells left untreated + 1% (v/v) DMSO + RPMI 1640 were used as negative control.

HeLa cells = experiment: MTT cytotoxicity assay; assay type: cell-based, Human; conditions: SI = LC50 on Vero cells / LC50 on HeLa cells
Description: as §1

V. cholerae NB2 = experiment: Broth microdilution MIC/MBC; assay type: cell-based, Vibrio cholerae
Description: (§2) A total of six bacterial strains were tested for their susceptibility to compounds and these strains were taken from our laboratory collection (kindly provided by Dr. T. Ramamurthy, NICED, Kolkata). Among the clinical strains of Vibrio cholerae used in this study, strains NB2 and SG24 and CO6 belonged to O1 and O139 serotypes, respectively. […]. The other strains used in this study were V. cholerae non-O1, non-O139 (strain PC2); […]. The American Type Culture Collection (ATCC) strain, Staphylococcus aureus ATCC 25923, was used for quality control. The bacterial strains were maintained on agar slant at 4 °C and subcultured on a fresh appropriate agar plates 24 h prior to any antibacterial test. The Mueller Hinton Agar (MHA) was used for the activation of bacteria. The Mueller Hinton Broth (MHB) and nutrient agar (Hi-Media) were used for the MIC and MBC determinations respectively.
(§3) Suspensions of bacteria were prepared in MHB from cells arrested during their logarithmic phase growth (4 h) on MHB at 37 °C. The turbidity of the microbial suspension was read spectrophotometrically at 600 nm and adjusted to an OD of 0.1 with MHB, which is equivalent to 1 × 10^8 CFU/mL. From this prepared solution, other dilutions were made with MHB to yield 1x10^6 CFU/mL.
(§4) MIC and MBC of compounds 1–3 were assessed using the broth microdilution method recommended by the National Committee for Clinical Laboratory Standards with slight modifications. Each test sample was dissolved in dimethylsulfoxide (DMSO) to give a stock solution. The 96-well round bottom sterile plates were prepared by dispensing 180 μL of the inoculated broth (1x10^6 CFU/mL) into each well. A 20 μL aliquot of the stock solution of compound was added. The concentrations of sample tested were 0.125, 0.25, 0.50, 1, 2, 4, 8, 16, 32, 64, 128, 256 and 512 μg/mL. […] Dilutions of tetracycline and ampicillin served as positive controls, while broth with 20 μL of DMSO was used as negative control. The ATCC strain Staphylococcus aureus ATCC 25923 was included for quality assurance purposes. Plates were covered and incubated for 24 h at 37 °C. After incubation, minimum inhibitory concentrations (MIC) were read visually; all wells were plated to nutrient agar (Hi-Media) and incubated. The minimal bactericidal concentration (MBC) was defined as a 99.9% reduction in CFU from the starting inoculums after 24 h incubation interval.

V. cholerae SG24 = experiment: Broth microdilution MIC/MBC; assay type: cell-based, Vibrio cholerae; conditions: Vibrio cholerae
Description: as §2, §3, §4

V. cholerae PC2 = experiment: Broth microdilution MIC/MBC; assay type: cell-based, Vibrio cholerae; conditions: Vibrio cholerae, V. cholerae PC2
Description: as §2, §3, §4

V. cholerae CO6 = experiment: Broth microdilution MIC/MBC; assay type: cell-based, Vibrio cholerae
Description: as §2, §3, §4

MTT cytotoxicity assay [2] = assay type: cell-based; conditions: African green monkey, Vero cells, normal non-cancer cells, mean ± SD, read-out: Cytotoxicty (LC50) Vero cells
Description: as §1

S. flexneri SDINT = experiment: Broth microdilution MIC/MBC; assay type: cell-based, Shigella flexneri
Description: as §2, §3, §4

S. aureus ATCC 25923 = experiment: Broth microdilution MIC/MBC; assay type: cell-based, Staphylococcus aureus
Description: as §2, §3, §4

[3] = test system: studied microorganisms (six bacterial strains); experiment: Antibacterial spectrum over the six tested strains (broth microdilution); assay type: cell-based; conditions: out of 6 strains; concentrations up to 512 μg/mL
Description: as §2, §4

Hemolytic assay = assay type: cell-based; conditions: male, 1% human red blood cell suspension, 512 μg/mL (highest concentration tested), 1% human red blood cells, PBS pH 7.4, 37 °C
Description: Whole blood (10 mL) from a healthy person was collected into a conical tube containing heparin as an anticoagulant. Erythrocytes were harvested by centrifugation at room temperature for 10 min at 1,000 × g and were washed three times in PBS solution. The top layer (plasma) and the next, milky layer (buffy coat with a layer of platelets on top of it) were then carefully aspirated and discarded. The cell pellet was resuspended in 10 mL of PBS solution and mixed by gentle aspiration with a Pasteur pipette. This cell suspension was used immediately.
For the normal human red blood cells, which were in suspension, the cytotoxicity was evaluated as previously described. Compounds 1–3, at concentrations ranging from 32 to 512 μg/mL, were incubated with an equal volume of 1% human red blood cells in phosphate buffered saline (10 mM PBS, pH 7.4) at 37 °C for 1 h. Tetracycline was tested simultaneously. Non-hemolytic and 100% hemolytic controls were the buffer alone and the buffer containing 1% Triton X-100, respectively. Cell lysis was monitored by measuring the release of hemoglobin at 595 nm with a spectrophotometer (Thermo Scientific, USA). Percent hemolysis was calculated as follows: [(A595 of sample treated with compound - A595 of sample treated with buffer)/(A595 of sample treated with Triton X-100 – A595 of sample treated with buffer)] x 100.

[4] = 99.9% reduction in CFU after 24 h

In the case of `C=C1[C@@H](C)C2[C@H](Cc3ccccc3)NC(=O)[C@@]23C(/C=C/C[C@H](C)C[C@@](C)(O)/C=C/[C@H]3O)[C@@H]1O` (stereo partly shown) [Compound 3, cytochalasin J], the CC50 at 24 h (MTT cytotoxicity assay [1]) is reported as 3.66 ± 0.33 µg/mL (≈ 8.1 µM), the “Selectivity Index HeLa cells” value (HeLa cells) is reported as 20.18 and the “Selectivity Index V. cholerae NB2” value (V. cholerae NB2; SI = LC50 on Vero cells / MIC) is reported as 0.14. It also gave an MBC/MIC (V. cholerae NB2; V. cholerae NB2) of 1, an MBC (V. cholerae NB2; Vibrio cholerae, V. cholerae NB2, 99.9% reduction in CFU after 24 h) of 512 µg/mL (≈ 1130 µM) and an MIC (V. cholerae NB2; Vibrio cholerae, V. cholerae NB2, 24 h at 37 °C, read-out: MIC) of 512 µg/mL (≈ 1130 µM). It also gave an MBC (V. cholerae SG24; [4]) greater than 512 µg/mL, an MIC (V. cholerae SG24; 24 h at 37 °C) greater than 512 µg/mL and an MBC (V. cholerae PC2; [4]) greater than 512 µg/mL. The MIC (V. cholerae PC2; 24 h at 37 °C, read-out: MIC) was greater than 512 µg/mL, the “Selectivity Index V. cholerae CO6” value (V. cholerae CO6; SI = LC50 on Vero cells / MIC) was 0.14 and the MBC/MIC (V. cholerae CO6; V. cholerae CO6) was 1. It also gave an MBC (V. cholerae CO6; Vibrio cholerae, V. cholerae CO6, 99.9% reduction in CFU after 24 h) of 512 µg/mL (≈ 1130 µM), an MIC (V. cholerae CO6; Vibrio cholerae, V. cholerae CO6, 24 h at 37 °C) of 512 µg/mL (≈ 1130 µM) and a CC50 at 24 h (MTT cytotoxicity assay [2]) of 73.9 ± 0.92 µg/mL (≈ 164 µM). The MBC/MIC (S. flexneri SDINT; S. flexneri SDINT) was 1, the “Selectivity Index S. flexneri SDINT” value (S. flexneri SDINT; SI = LC50 on Vero cells / MIC) was 0.57 and the MBC (S. flexneri SDINT; Shigella flexneri, S. flexneri SDINT, 99.9% reduction in CFU after 24 h) was 128 µg/mL (≈ 283 µM). For the same compound, the MIC (S. flexneri SDINT; Shigella flexneri, S. flexneri SDINT, 24 h at 37 °C, read-out: MIC) was 128 µg/mL (≈ 283 µM), the MBC/MIC (S. aureus ATCC 25923; S. aureus ATCC 25923) was 1 and the “Selectivity Index S. aureus ATCC 25923” value (S. aureus ATCC 25923; SI = LC50 on Vero cells / MIC) was 0.14. For the same compound, the MBC (S. aureus ATCC 25923; Staphylococcus aureus, ATCC25923, S. aureus ATCC 25923, 99.9% reduction in CFU after 24 h) was 512 µg/mL (≈ 1130 µM), the MIC (S. aureus ATCC 25923; Staphylococcus aureus, ATCC25923, S. aureus ATCC 25923, 24 h at 37 °C) was 512 µg/mL (≈ 1130 µM) and the “share of the studied microorganisms on which inhibitory effects were noted” value [3] was 66.66%. It also gave a hemolysis at 1 h, 512 μg/mL (Hemolytic assay) of less than 10%.
